In patent US6482802B1 (Endowment for Research in Human Biology, Inc., priority 1998, dated 2002):
Several values for one entry are separate records, joined by “and”; a condition that tells them apart may be missing. Equal values may be shown once. Entries after “also recorded” stand apart in the source; their conditions may differ.

How the values were obtained:
[1] = test system: chorioallantoic membrane (CAM) of chick embryos; test: CAM assay, VEGF-induced angiogenesis; format: in vivo; conditions: VEGF 10 ng alone
Description: (§1) Angiogenesis was measured on the CAM by the method of Knighton et al. (Knighton et al., 1977, Br. J. Cancer 35:347-356) essentially as described (Fett et al., 1985, Biochemistry 24:5480-5486). Fertilized chicken eggs were kept at 18° C. for 2 days and then incubated in a humidified environment at 37° C. for 3 days. Albumin was aspirated from the embryos and after 24 hours, a “window” was cut through the shell and covered with clear tape. […] After 48-68 hours at 37° C., the growth of blood vessels was observed microscopically and recorded as either positive or negative. A positive response (i.e., an angiogenic response) has a typical “spokewheel” appearance.

[2] = test system: HUVE cells; test: Angiogenin-induced proliferation of HUVE cells; format: cell-based, human; conditions: for Cell number / percent of cell number in the presence of 1 μg/ml angiogenin relative to the corresponding control: aminoglycoside 100 μM; for percent of cell number in the presence of 1 μg/ml angiogenin relative to the corresponding control: none: 120; for inhibition of angiogenin-induced cell proliferation: aminoglycoside 100 μM (Table 3)
Description: (§2) HUVE cells were seeded at 4×10^3 cells/cm^2 in attachment factor (Cell Systems Corp.)-coated 35 mm dishes in HE-SFM, and incubated with 1 μg/ml angiogenin in the presence or absence of inhibitors at 37° C. for 48 hr. Cell were detached by trypsinization and cell numbers were determined with a Coulter counter.

[3] = test system: chorioallantoic membrane (CAM) of chick embryos; test: CAM assay, angiogenin-induced angiogenesis; format: in vivo; conditions: for inhibition of angiogenin-induced angiogenesis in CAM assay: in vivo
Description: as §1

[4] = test system: HUVE cells; test: Cytotoxicity against HUVE cells; format: cell-based, human; conditions: concentration not given
Description: Human umbilical vein endothelial (HUVE) cells were purchased from Cell Systems Corp. (Kirkland, Wash.). […] Cells between passages 5 and 12 inclusive were used for all experiments. Cell numbers were determined with a Coulter counter, and cell viability was measured by trypan blue dye exclusion assay.

[5] = test system: HUVE cells; test: bFGF-induced proliferation of HUVE cells, aminoglycoside antibiotics; format: cell-based, human; conditions: aminoglycoside 100 μM; for % Inhibition of bFGF-induced cell proliferation / bFGF (10 ng/ml) Cell Numbers: bFGF 10 ng/ml; for bFGF (10 ng/ml) Cell Numbers / Control (cell number without bFGF): 48 hr; for bFGF (10 ng/ml) Cell Numbers: control 99000 ± 1000; for Control (cell number without bFGF): no bFGF, control 61300 ± 500
Description: as §2
The ability of the other members of the aminoglycoside antibiotic family to inhibit bFGF-induced proliferation of HUVE cells was examined in a similar manner as for angiogenin as described in Section 6.1.1.5, above. HUVE cells, passage 9, were seeded on attachment-factor coated dishes at 50,000 cells per 35 mm dish in HE-SFM. Aminoglycoside antibiotics were added and the cells were incubated with or without […] at 37° C. for 48 hr.

[6] = test system: chorioallantoic membrane (CAM) of chick embryos; test: CAM assay, aFGF-induced angiogenesis; format: in vivo; conditions: aFGF 10 ng alone
Description: as §1

[7] = test system: nuclear translocation of 125I-angiogenin in HUVE cells; test: Nuclear translocation of 125I-angiogenin in HUVE cells; conditions: for effect on nuclear translocation of 125I-angiogenin: HUVE cells, concentrations as in Table 1; for Nuclear 125I-angiogenin: 37° C. 30 min, control 3090 ± 260; for Nuclear 125I-angiogenin / % inhibition of nuclear translocation of angiogenin: 125I-angiogenin 1 μg/ml 30 min
[8] = test system: chorioallantoic membrane (CAM) of chick embryos; test: CAM assay, EGF-induced angiogenesis; format: in vivo; conditions: EGF 10 ng alone
Description: as §1

[9] = test system: chorioallantoic membrane (CAM) of chick embryos; test: CAM assay, bFGF-induced angiogenesis; format: in vivo; conditions: bFGF 10 ng alone
Description: as §1

[10] = with angiogenin 1 μg/ml, none: 62,500 ± 100
[11] = without angiogenin, none: 52,000 ± 100

VEGF
Positive eggs ([1]; 27 total eggs): 17
% Positive ([1]; water 21): 63%

Angiogenin: Human angiogenin (Met-1), recombinant product from an Escherichia coli expression system
increase of cell number after 48 hr ([2]; angiogenin 1 μg/ml, no neomycin): 35%
% Positive (angiogenic response) ([3]; angiogenin 10 ng alone, water 20): 55%

NC[C@H]1O[C@H](O[C@H]2[C@H](O)[C@@H](O[C@H]3O[C@H](CO)[C@@H](O)[C@H](N)[C@H]3O)[C@H](N)C[C@@H]2N)[C@H](O)[C@@H](O)[C@@H]1O [Kanamycin, kanamycin]
cytotoxicity against HUVE cells [4]: no cytotoxicity
% Inhibition of bFGF-induced cell proliferation [5]: 8%
bFGF (10 ng/ml) Cell Numbers [5]: 98000 ± 2500
Control (cell number without bFGF) [5]: 62600 ± 1100
Cell number [2, 10]: 58,900 ± 200
Cell number [2, 11]: 48,800 ± 400
percent of cell number in the presence of 1 μg/ml angiogenin relative to the corresponding control [2]: 121%

aFGF: acidic fibroblast growth factor
Positive eggs ([6]; 49 total eggs): 36
% Positive ([6]; water 21): 73%

[H]/N=C(/N)N[C@H]1[C@H](O)[C@@H](O)[C@H](O[C@@H]2O[C@@H](C)[C@](O)(C=O)[C@H]2O[C@@H]2O[C@@H](CO)[C@H](O)[C@@H](O)[C@@H]2NC)[C@@H](N/C(N)=N\[H])[C@@H]1O [Streptomycin, streptomycin]
cytotoxicity against HUVE cells [4]: no cytotoxicity
significant inhibitory effect on cell proliferation induced by bFGF [5]: no
% Inhibition of bFGF-induced cell proliferation [5]: 0%
bFGF (10 ng/ml) Cell Numbers [5]: 104200 ± 400
Control (cell number without bFGF) [5]: 62300 ± 600
inhibition of angiogenin-induced cell proliferation [2]: None
Cell number [2, 10]: 59,900 ± 900
Cell number [2, 11]: 51,900 ± 1,300
percent of cell number in the presence of 1 μg/ml angiogenin relative to the corresponding control [2]: 115%
inhibition of angiogenin-induced angiogenesis in CAM assay [3]: do not inhibit angiogenin-induced angiogenesis

gentamicin
cytotoxicity against HUVE cells [4]: no cytotoxicity
significant inhibitory effect on cell proliferation induced by bFGF [5]: no
% Inhibition of bFGF-induced cell proliferation [5]: 5%
bFGF (10 ng/ml) Cell Numbers [5]: 98400 ± 1900
Control (cell number without bFGF) [5]: 61800 ± 1200
inhibition of angiogenin-induced cell proliferation [2]: None
Cell number [2, 10]: 55,700 ± 900
Cell number [2, 11]: 45,700 ± 500
percent of cell number in the presence of 1 μg/ml angiogenin relative to the corresponding control [2]: 121%

CN[C@@H]1C[C@H]2O[C@@](C)([C@@H]1OC)n1c3ccccc3c3c4c(c5c6ccccc6n2c5c31)C(=O)NC4 [Staurosporine, staurosporine]
effect on nuclear translocation of 125I-angiogenin [7]: only marginally inhibitory; also recorded: do not inhibit nuclear translocation of angiogenin
Nuclear 125I-angiogenin ([7]; inhibitor 100 nM): 2710 ± 70 cpm

EGF: epidermal growth factor
Positive eggs ([8]; 26 total eggs): 18
% Positive ([8]; water 21): 69%

bFGF: basic fibroblast growth factor
Positive eggs ([9]; 37 total eggs): 29
% Positive ([9]; water 21): 78%

NC[C@@H]1O[C@H](O[C@H]2[C@@H](O)[C@H](O[C@@H]3[C@@H](O)[C@H](N)C[C@H](N)[C@H]3O[C@H]3O[C@H](CO)[C@@H](O)[C@H](O)[C@H]3N)O[C@@H]2CO)[C@H](N)[C@@H](O)[C@@H]1O [Paromomycin, paromomycin]
cytotoxicity against HUVE cells [4]: no cytotoxicity
inhibition of angiogenin-induced cell proliferation [2]: did not inhibit angiogenin-induced cell proliferation; also recorded: no inhibitory activity at all
Cell number [2, 10]: 58,900 ± 400
Cell number [2, 11]: 50,900 ± 500
percent of cell number in the presence of 1 μg/ml angiogenin relative to the corresponding control [2]: 116%

COc1ccc2c(c1)CC[C@@H]1[C@@H]2CC[C@]2(C)[C@@H](NCCCCCCN3C(=O)CCC3=O)CC[C@@H]12 [U-73343]
effect on nuclear translocation of 125I-angiogenin [7]: no effect
Nuclear 125I-angiogenin ([7]; inhibitor 10 μM): 2890 ± 100 cpm
% inhibition of nuclear translocation of angiogenin ([7]; inhibitor 10 μM): 6%

COc1ccc2c(c1)CC[C@@H]1[C@@H]2CC[C@]2(C)[C@@H](NCCCCCCN3C(=O)C=CC3=O)CC[C@@H]12 [U-73122]
Nuclear 125I-angiogenin ([7]; inhibitor 10 μM): 2140 ± 30 cpm
% inhibition of nuclear translocation of angiogenin ([7]; inhibitor 10 μM, 10 µM): 30% and 31%

NCC[C@H](O)C(=O)N[C@@H]1C[C@H](N)[C@@H](O[C@H]2O[C@H](CN)[C@@H](O)[C@H](O)[C@H]2O)[C@H](O)[C@H]1O[C@H]1O[C@H](CO)[C@@H](O)[C@H](N)[C@H]1O [Amikacin, amikacin]
cytotoxicity against HUVE cells [4]: no cytotoxicity
significant inhibitory effect on cell proliferation induced by bFGF [5]: no
% Inhibition of bFGF-induced cell proliferation [5]: 11%
bFGF (10 ng/ml) Cell Numbers [5]: 97600 ± 1300
Control (cell number without bFGF) [5]: 63000 ± 900
inhibition of angiogenin-induced cell proliferation [2]: None
Cell number [2, 10]: 61,000 ± 400
Cell number [2, 11]: 51,700 ± 200
percent of cell number in the presence of 1 μg/ml angiogenin relative to the corresponding control [2]: 118%
inhibition of angiogenin-induced angiogenesis in CAM assay [3]: do not inhibit angiogenin-induced angiogenesis

O=c1c(-c2ccc(O)cc2)coc2cc(O)cc(O)c12 [Genistein, genistein]
effect on nuclear translocation of 125I-angiogenin [7]: no effect; also recorded: do not inhibit nuclear translocation of angiogenin
inhibition at 100 µM ([7]; Homo sapiens, 0.5 h, read-out: % inhibition of nuclear translocation of angiogenin): 0%
Nuclear 125I-angiogenin ([7]; inhibitor 100 μM): 3300 ± 170 cpm
